Assay results as given in article PMC8069832, “New Amides and Phosphoramidates Containing Selenium: Studies on Their Cytotoxicity and Antioxidant Activities in Breast Cancer” (Antioxidants, 2021).
Like-named read-outs stand apart in the source and are kept apart here.

Columns and labels:
CCRF-CEM = assay: cells; details: Homo sapiens, 48 h; for activity at 10 µM: read-out: Cell growth (%) CCRF-CEM; for GI50: read-out: GI50 CCRF-CEM; for CC50: read-out: LC50 CCRF-CEM; for IC (TGI): read-out: TGI CCRF-CEM
[1] = MTT cytotoxicity in nonmalignant bronchial epithelium cells; type: cell-based; details: human; for LC50 (50% lethal concentration): nonmalignant cells, 48 h, read-out: LC50 BEAS-2B
Description: (§1) Cell lines were provided by the European Collection of Cell Cultures (ECACC) or by the American Type Culture Collection (ATCC). Seven cell lines were used: MCF-7 (breast adenocarnicoma), 184B5 (nonmalignant, mammary gland derived), CCRF-CEM (lymphoblastic leukemia), HT-29 (colon carcinoma), HTB-54 (lung carcinoma), BEAS-2B (nonmalignant, derived from the bronchial epithelium) and PC-3 (prostate carcinoma). MCF-7, CCRF-CEM, HT-29, HTB-54, BEAS-2B and PC-3 cell lines were grown in RPMI medium (Gibco) supplemented with 10% fetal bovine serum (FBS; Gibco), 100 units/mL penicillin and […] streptomycin (Gibco). 184B5 cells were grown in DMEM/F12 medium supplemented with 5% FBS, 1 × ITS (Lonza), 100 nM hydrocortisone (Aldich), 2 mM sodium pyruvate (Lonza), 20 ng/mL EGF (Sigma-Aldrich), 0.3 nM trans-retinoic acid (Sigma-Aldrich), 100 units/mL penicillin and […] streptomycin. Cells were maintained at 37 °C and 5% CO2.
(§2) The cytotoxic effect of each substance was tested by the MTT method. Each compound was initially dissolved in DMSO at a concentration of 0.01 M, and serial dilutions were prepared with nonsupplemented medium. The cytotoxic effect of each compound was tested at 50 and 10 µM as a first screening. […]
(§3) A total of 1 × 10^4 cells/well in 96-well plates were treated with increasing concentrations of the corresponding compounds for 48 h at 37 °C in a humidified atmosphere containing 5% CO2. Then, cells were incubated with 50 µL of MTT (2 mg/mL stock) for 4 h. The medium was then removed by aspiration, and the formazan crystals were dissolved in […] of DMSO. […] Data were obtained from at least 3 independent experiments performed in quadruplicate. The standard error of the means (SEM) for the cytotoxic parameters was calculated applying the standard deviation formula to the mean values of each parameter for the three independent experiments performed.
(§4) . Cisplatin was used as a standard drug. […]. […] The presence of electron-withdrawing groups (-NO2, -CF3, -Cl) in the phenyl ring favored the cytotoxic activity in the amides, but in the phosphoramidates, the best results were obtained for aliphatic chains methoxy (II.1b, II.2b) and ethoxy (II.1d, II.2d). […].
(§5) The lack of selectivity toward cancerous cells is one of the major issues during the discovery and development of new anticancer agents. Therefore, we evaluated the cytotoxic activity of our compounds against two cell lines derived from nonmalignant breast tissue (184B5) and no malignant bronchial epithelium (BEAS-2B) (Table 2). […].

BEAS-2B = assay: as above; type: cell-based; details: for GI50 / IC (TGI): Homo sapiens, BEAS-2B, nonmalignant cells, 48 h; for GI50: read-out: GI50 BEAS-2B; for IC (TGI): read-out: TGI BEAS-2B; for Selectivity index (SI) = GI50 (BEAS-2B)/GI50 (HTB-54): lung
Description: as §1, §2, §3, §4, §5

PC-3 = assay: cells; type: cell-based; details: Homo sapiens; for LC50: read-out: LC50 PC-3; for GI50: read-out: GI50 PC-3; for IC (TGI): read-out: TGI PC-3
Description: as §1, §2, §3, §4

HTB-54 = assay: cells; type: cell-based; details: Homo sapiens; for CC50: read-out: LC50 HTB54; for GI50: read-out: GI50 HTB54; for IC (TGI): read-out: TGI HTB54
Description: as §1, §2, §3, §4

184B5 = assay: MTT cytotoxicity in nonmalignant mammary gland derived cells; type: cell-based; details: for GI50 / IC (TGI): Homo sapiens, 184B5, nonmalignant cells, 48 h; for GI50: read-out: GI50 184B5; for IC (TGI): read-out: TGI 184B5; for Selectivity index (SI) = GI50 (184B5)/GI50 (MCF-7): breast
Description: as §1, §2, §3, §4, §5

[2] = as above; type: cell-based; details: human
Description: as §1, §2, §3, §4, §5

HT-29 = assay: cells; details: Homo sapiens, HT-29, 48 h; for activity at 10 µM: read-out: Cell growth (%) HT-29; for GI50: read-out: GI50 HT-29; for CC50: read-out: LC50 HT-29; for IC (TGI): read-out: TGI HT-29
MCF-7 = assay: cells; details: Homo sapiens, MCF7, 48 h; for activity at 10 µM: read-out: Cell growth (%) MCF-7; for GI50: read-out: GI50 MCF-7, 48 h, average ± SEM; for CC50: read-out: LC50 MCF-7; for IC (TGI): read-out: TGI MCF-7
[3] = DPPH radical scavenging assay; details: for DPPH activity inhibition: after 30 min
Description: The DPPH (1,1-diphenyl-2-picrylhydrazyl radical) assay measures the hydrogen donation ability of the antioxidant to convert the stable DPPH free radical into 1,1-diphenyl-2-(2,4,6-trinitrophenyl)-hydrazine. After radical reaction with the compounds, a decrease in the absorbance was detected at 517 nm, which is accompanied by a change of color from violet to light-yellow. The target compounds were dissolved in methanol to make 1 mg/mL stock solutions, which were diluted to five concentrations as test samples. Ascorbic acid was used as a standard, and the experiment was carried out on 96-well plates. The DPPH solution was prepared at a 100 µM concentration. For each test, 100 µL of DPPH solution was added to 100 µL of methanolic solution containing the tested derivatives, and the absorbance was determined at different time points. All the measurements were carried out in triplicate. Results were expressed as the percentage of the radical scavenged, calculated using the following formula:(1) % DPPH radical scavenging=Acontrol − Asample/Acontrol × 100 where Acontrol refers to the absorbance of the negative control, and Asample refers to the absorbance of the tested compounds. Results are expressed as a percentage of DPPH radical scavenged ± SEM.
. Ascorbic acid and Trolox were used as radical scavenger gold standards. […]. No correlation was found for either structure–radical scavenging activity or antitumor–radical scavenging activity, except for compound I.2f, one of the selected cytotoxic agents. To further confirm this antioxidant activity, three compounds (I.1e, I.1g and I.2i) were also evaluated as DPPH radical scavengers at a lower concentration of 0.003 mg/mL (Figure 3B).

[4] = nonmalignant cells, 48 h, read-out: LC50 184B5

| Compound | activity at 10 µM (CCRF-CEM) [%] | GI50 (CCRF-CEM) [µM] | CC50 (CCRF-CEM) [µM] | IC (TGI) (CCRF-CEM) [µM] | GI50 (BEAS-2B) [µM] | IC (TGI) (BEAS-2B) [µM] | GI50 (PC-3; PC-3, 48 h, average ± SEM) [µM] | IC (TGI) (PC-3; PC-3, 48 h, average ± SEM) [µM] | GI50 (HTB-54; HTB-54, 48 h, average ± SEM) [µM] | IC (TGI) (HTB-54; HTB-54, 48 h, average ± SEM) [µM] | GI50 (184B5) [µM] | IC (TGI) (184B5) [µM] | Selectivity index (SI) = GI50 (184B5)/GI50 (MCF-7) (184B5) | activity at 10 µM (HT-29) [%] | GI50 (HT-29) [µM] | CC50 (HT-29) [µM] | IC (TGI) (HT-29) [µM] | activity at 10 µM (MCF-7) [%] | GI50 (MCF-7) [µM] | CC50 (MCF-7) [µM] | also measured |
| --- | --- | --- | --- | --- | --- | --- | --- | --- | --- | --- | --- | --- | --- | --- | --- | --- | --- | --- | --- | --- | --- |
| O=C(Nc1ccc([Se][Se]c2ccc(NC(=O)c3ccco3)cc2)cc1)c1ccco1 [I.1h] | 34.1 | 4.1 ± 2.4 | 72.8 ± 2.9 | 36.1 ± 1.4 | 10.6 | 40.6 | 2.3 ± 0.3 | 27.6 ± 2.8 | 20.8 ± 2.5 | 48.6 ± 1.8 | 19.9 | 47.2 | 1.11 | 62.1 | 17.4 ± 1.9 | 74.3 ± 0.7 | 45.8 ± 1.2 | 63.5 | 18 ± 2.3 | 76.6 ± 2.5 | LC50 (50% lethal concentration) at 48 h [1]: 70.7 µM; Selectivity index (SI) = GI50 (BEAS-2B)/GI50 (HTB-54) (BEAS-2B): 0.51; LC50 (PC-3; PC-3, 48 h): 65.6 ± 4.1 µM; CC50 (HTB-54; HTB-54, 48 h): 76.3 ± 3.6 µM; LC50 (50% lethal concentration) at 48 h [2]: 74.4 µM; IC (TGI) (MCF-7): 47.3 ± 2.4 µM |
| Cc1ccc(C(=O)Nc2ccc([Se][Se]c3ccc(NC(=O)c4ccc(C)cc4)cc3)cc2)cc1 [I.1g] | 105 |  |  |  |  |  |  |  |  |  |  |  |  | 109 |  |  |  | 57.5 |  |  | DPPH radical scavenging activity ([3]; 0.003 mg/mL): some moderate effect was observed; DPPH activity inhibition ([3]; 0.03 mg/mL): greater than 35% |
| N#C[Se]c1ccc(NC(=O)c2ccno2)cc1 [I.2j] | 48.4 |  |  |  |  |  |  |  |  |  |  |  |  | 90.8 |  |  |  | 91 |  |  | DPPH activity inhibition ([3]; 0.03 mg/mL): greater than 35% |
| O=C(Nc1ccc([Se][Se]c2ccc(NC(=O)c3ccc(Cl)cc3)cc2)cc1)c1ccc(Cl)cc1 [I.1b] | 45.5 | 9 ± 1.6 | > 100 | 72.6 ± 1.1 | 1.11 | 42.8 | 7.7 ± 2.2 | > 100 | > 100 | > 100 | 7.08 | > 100 | 1.57 | -10.7 | 3 ± 1.8 | > 100 | 7.7 ± 0.6 | 19.8 | 4.6 ± 0.5 | > 100 | LC50 (50% lethal concentration) at 48 h [1]: > 100 µM; LC50 (PC-3; PC-3, 48 h): > 100 µM; CC50 (HTB-54; HTB-54, 48 h): > 100 µM; LC50 (50% lethal concentration) at 48 h [2]: > 100 µM; IC (TGI) (MCF-7): > 100 µM |
| COP(=O)(Nc1ccc([Se][Se]c2ccc(NP(=O)(OC)OC)cc2)cc1)OC [II.1b] | -74.1 | 2 ± 0.1 | 8 ± 2.8 | 3.9 ± 0.4 | 6.48 | 41.3 | 17.1 ± 1.7 | 46.9 ± 2.3 | 7.2 ± 3.2 | 37.1 ± 3.2 | 5.75 | 7.2 | 1.36 | 70.7 | 20 ± 3.1 | 74.9 ± 0.6 | 47.4 ± 2 | -13.9 | 4.3 ± 0.6 | 56.9 ± 5.4 | LC50 (50% lethal concentration) [1]: > 100 µM; Selectivity index (SI) = GI50 (BEAS-2B)/GI50 (HTB-54) (BEAS-2B): 0.84; LC50 (PC-3; PC-3, 48 h, average ± SEM): 76.6 ± 2.5 µM; CC50 (HTB-54; HTB-54, 48 h, average ± SEM): 76 ± 4.2 µM; CC50 [2, 4]: 8.65 µM; IC (TGI) (MCF-7): 8.8 ± 0.1 µM |
| N#C[Se]c1ccc(NC(=O)c2cccs2)cc1 [I.2i] | 43.6 |  |  |  |  |  |  |  |  |  |  |  |  | 85.3 |  |  |  | 74.5 |  |  | DPPH radical scavenging activity ([3]; 0.003 mg/mL): some moderate effect was observed; DPPH radical scavenging activity ([3]; 0.03 mg/mL, 0-120 min): the most active radical scavenger; DPPH activity inhibition ([3]; 0.03 mg/mL): greater than 35% |
| N#C[Se]c1ccc(NC(=O)c2ccco2)cc1 [I.2h] | 47.1 | 21.8 ± 3.1 | > 100 | > 100 | 8.47 | 67.3 | > 100 | > 100 | > 100 | > 100 | 36.1 | > 100 | 5.66 | 46.7 | 42.7 ± 1.2 | > 100 | > 100 | 41.6 | 7.4 ± 1.9 | 94.9 ± 4.7 | LC50 (50% lethal concentration) [1]: > 100 µM; LC50 (PC-3; PC-3, 48 h, average ± SEM): > 100 µM; CC50 (HTB-54; HTB-54, 48 h, average ± SEM): > 100 µM; LC50 (50% lethal concentration) [2, 4]: > 100 µM; IC (TGI) (MCF-7): 50.4 ± 1.3 µM |
| CSc1ccc(C(=O)Nc2ccc([Se][Se]c3ccc(NC(=O)c4ccc(SC)cc4)cc3)cc2)cc1 [I.1n] | 72.1 |  |  |  |  |  |  |  |  |  |  |  |  | 50.6 |  |  |  | 64 |  |  | DPPH activity inhibition ([3]; 0.03 mg/mL): greater than 35% |
| CCOP(=O)(Nc1ccc([Se][Se]c2ccc(NP(=O)(OCC)OCC)cc2)cc1)OCC [II.1d] | -86.7 | 0.4 ± 0.2 | 3.4 ± 0.2 | 1.7 ± 0.2 | 5.43 | 6.98 | 6.4 ± 0.2 | 8.6 ± 0.2 | 5.9 ± 0.3 | 7.7 ± 0.2 | 5.45 | 7.01 | 2.38 | -69.8 | 1.7 ± 0.1 | 4.3 ± 0.1 | 3 ± 0.1 | -57.5 | 2.3 ± 0.2 | 8.8 ± 0.8 | LC50 (50% lethal concentration) [1]: 8.54 µM; Selectivity index (SI) = GI50 (BEAS-2B)/GI50 (HTB-54) (BEAS-2B): 0.92; LC50 (PC-3; PC-3, 48 h, average ± SEM): 35.1 ± 4.9 µM; CC50 (HTB-54; HTB-54, 48 h, average ± SEM): 9.4 ± 0.1 µM; CC50 [2, 4]: 8.58 µM; IC (TGI) (MCF-7): 4.2 ± 0.3 µM |
